Experimental data from the kinase profiling compilation of Christmann-Franck et al. (2016).

How the values were obtained:
Assay in all cases: KINOMEscan competition binding
Details in all cases: compound 2.0 µM
MAPK15 (human) = MAPK15 (human) (UniProt Q8TD08)
MAPK11 (human) = MAPK11 (human) (UniProt Q15759)
MAP3K5 (human) = MAP3K5 (human) (UniProt Q99683)
ROCK2 (human) = ROCK2 (human) (UniProt O75116)
EPHA4 (human) = EPHA4 (human) (UniProt P54764)
[1] = system: EGFR (human), P00533 [L858R]
CSNK2A2 (human) = CSNK2A2 (human) (UniProt P19784)
IKBKB (human) = IKBKB (human) (UniProt O14920)
PIM1 (human) = PIM1 (human) (UniProt P11309)
[2] = system: FGFR3 (human), P22607 [G697C]
MTOR (human) = MTOR (human) (UniProt P42345)
STK36 (human) = STK36 (human) (UniProt Q9NRP7)
EPHA8 (human) = EPHA8 (human) (UniProt P29322)
PRKG2 (human) = PRKG2 (human) (UniProt Q13237)
[3] = system: KIT (human), P10721 [L576P]
ALK (human) = ALK (human) (UniProt Q9UM73)
BMPR2 (human) = BMPR2 (human) (UniProt Q13873)
RPS6KA2 KD2 (human) = RPS6KA2 KD2 (human) (UniProt Q15349)
DAPK1 (human) = DAPK1 (human) (UniProt P53355)
ACVR1 (human) = ACVR1 (human) (UniProt Q04771)
CHUK (human) = CHUK (human) (UniProt O15111)
[4] = system: FLT3 (human), P36888 [K663Q]
CDK11B (human) = CDK11B (human) (UniProt P21127)
[5] = system: PIK3CA (human), P42336 [E545K]
KDR (human) = KDR (human) (UniProt P35968)
CSNK1E (human) = CSNK1E (human) (UniProt P49674)
MAPK6 (human) = MAPK6 (human) (UniProt Q16659)
PDGFRA (human) = PDGFRA (human) (UniProt P16234)
MYLK2 (human) = MYLK2 (human) (UniProt Q9H1R3)
MYO3A (human) = MYO3A (human) (UniProt Q8NEV4)
PAK6 (human) = PAK6 (human) (UniProt Q9NQU5)
ABL2 (human) = ABL2 (human) (UniProt P42684)
MAP3K15 (human) = MAP3K15 (human) (UniProt Q6ZN16)
GSK3A (human) = GSK3A (human) (UniProt P49840)
RPS6KA3 KD1 (human) = RPS6KA3 KD1 (human) (UniProt P51812)
IGF1R (human) = IGF1R (human) (UniProt P08069)
[6] = system: KIT (human), P10721 [V559D/T670I]
PRKCE (human) = PRKCE (human) (UniProt Q02156)
SIK1 (human) = SIK1 (human) (UniProt P57059)
PDGFRB (human) = PDGFRB (human) (UniProt P09619)
AURKC (human) = AURKC (human) (UniProt Q9UQB9)
[7] = system: KIT (human), P10721 [A829P]
DDR2 (human) = DDR2 (human) (UniProt Q16832)

Sequence of CSNK1E (human) (P49674 whole entry, looked up): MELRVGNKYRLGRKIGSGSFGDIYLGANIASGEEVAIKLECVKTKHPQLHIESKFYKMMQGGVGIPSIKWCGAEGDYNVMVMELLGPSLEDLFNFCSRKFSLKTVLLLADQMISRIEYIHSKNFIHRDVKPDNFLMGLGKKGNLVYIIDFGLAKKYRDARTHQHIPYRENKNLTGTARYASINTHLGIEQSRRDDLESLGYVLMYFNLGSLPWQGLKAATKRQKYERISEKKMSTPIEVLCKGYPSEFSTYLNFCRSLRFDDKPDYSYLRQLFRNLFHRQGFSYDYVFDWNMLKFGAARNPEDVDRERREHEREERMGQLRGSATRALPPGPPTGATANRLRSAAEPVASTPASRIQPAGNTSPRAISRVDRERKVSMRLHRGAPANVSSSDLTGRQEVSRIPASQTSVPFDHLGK
Sequence of CDK11B (human) (P21127 whole entry, looked up): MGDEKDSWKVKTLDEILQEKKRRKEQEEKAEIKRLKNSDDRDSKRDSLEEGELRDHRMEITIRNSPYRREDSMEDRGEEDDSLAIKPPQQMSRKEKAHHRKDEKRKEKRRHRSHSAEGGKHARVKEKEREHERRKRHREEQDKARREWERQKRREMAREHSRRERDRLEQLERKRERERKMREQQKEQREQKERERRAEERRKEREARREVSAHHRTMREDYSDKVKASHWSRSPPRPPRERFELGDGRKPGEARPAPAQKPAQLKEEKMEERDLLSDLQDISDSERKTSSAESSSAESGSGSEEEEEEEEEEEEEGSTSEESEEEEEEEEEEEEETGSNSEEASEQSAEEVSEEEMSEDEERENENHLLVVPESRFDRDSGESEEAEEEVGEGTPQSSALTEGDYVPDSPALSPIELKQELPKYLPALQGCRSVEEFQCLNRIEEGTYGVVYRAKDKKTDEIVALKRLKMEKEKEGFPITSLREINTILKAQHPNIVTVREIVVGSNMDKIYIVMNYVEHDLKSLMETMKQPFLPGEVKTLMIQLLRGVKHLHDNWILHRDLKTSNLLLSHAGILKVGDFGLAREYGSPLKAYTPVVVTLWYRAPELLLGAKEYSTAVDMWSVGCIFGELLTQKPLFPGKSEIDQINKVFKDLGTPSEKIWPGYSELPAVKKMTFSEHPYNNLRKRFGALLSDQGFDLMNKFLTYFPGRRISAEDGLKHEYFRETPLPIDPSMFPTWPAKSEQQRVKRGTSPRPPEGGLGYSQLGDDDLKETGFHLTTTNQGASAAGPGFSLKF
Sequence of DAPK1 (human) (P53355 whole entry, looked up): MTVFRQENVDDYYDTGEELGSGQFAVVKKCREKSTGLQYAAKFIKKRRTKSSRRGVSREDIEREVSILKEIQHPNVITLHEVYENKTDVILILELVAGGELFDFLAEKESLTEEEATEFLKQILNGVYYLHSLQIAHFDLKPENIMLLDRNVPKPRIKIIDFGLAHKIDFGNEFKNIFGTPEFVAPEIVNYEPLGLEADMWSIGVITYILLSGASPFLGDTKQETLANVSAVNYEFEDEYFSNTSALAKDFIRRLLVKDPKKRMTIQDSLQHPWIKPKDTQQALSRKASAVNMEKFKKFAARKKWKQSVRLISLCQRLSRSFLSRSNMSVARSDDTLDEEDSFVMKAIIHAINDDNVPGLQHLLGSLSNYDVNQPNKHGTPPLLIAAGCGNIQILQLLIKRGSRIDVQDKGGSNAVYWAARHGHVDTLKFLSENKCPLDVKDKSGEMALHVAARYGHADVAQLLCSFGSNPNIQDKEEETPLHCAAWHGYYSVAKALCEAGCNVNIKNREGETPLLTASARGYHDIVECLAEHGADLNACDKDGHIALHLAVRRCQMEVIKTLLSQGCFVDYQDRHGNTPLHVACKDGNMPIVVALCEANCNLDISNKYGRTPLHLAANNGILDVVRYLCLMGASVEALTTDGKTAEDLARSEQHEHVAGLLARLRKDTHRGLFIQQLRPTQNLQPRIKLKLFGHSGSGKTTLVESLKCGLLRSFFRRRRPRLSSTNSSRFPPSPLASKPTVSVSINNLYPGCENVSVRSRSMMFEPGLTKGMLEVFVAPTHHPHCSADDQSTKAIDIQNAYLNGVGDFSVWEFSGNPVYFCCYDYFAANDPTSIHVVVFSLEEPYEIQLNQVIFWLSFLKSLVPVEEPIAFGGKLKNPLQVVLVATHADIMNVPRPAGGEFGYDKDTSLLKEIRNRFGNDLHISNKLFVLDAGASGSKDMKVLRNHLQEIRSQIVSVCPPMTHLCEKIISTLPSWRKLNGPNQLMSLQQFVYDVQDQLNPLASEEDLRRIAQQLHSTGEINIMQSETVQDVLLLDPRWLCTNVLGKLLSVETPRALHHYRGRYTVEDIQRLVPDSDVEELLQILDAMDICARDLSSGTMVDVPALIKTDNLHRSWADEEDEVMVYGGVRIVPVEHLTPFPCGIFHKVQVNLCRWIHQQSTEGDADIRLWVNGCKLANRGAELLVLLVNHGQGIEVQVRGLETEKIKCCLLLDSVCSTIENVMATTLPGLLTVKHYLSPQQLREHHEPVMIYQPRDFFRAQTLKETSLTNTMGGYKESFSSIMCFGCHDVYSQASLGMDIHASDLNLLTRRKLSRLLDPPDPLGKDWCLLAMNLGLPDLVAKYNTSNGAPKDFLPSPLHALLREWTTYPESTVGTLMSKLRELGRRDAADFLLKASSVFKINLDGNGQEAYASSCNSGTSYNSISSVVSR
Sequence of ALK (human) (Q9UM73 whole entry, looked up): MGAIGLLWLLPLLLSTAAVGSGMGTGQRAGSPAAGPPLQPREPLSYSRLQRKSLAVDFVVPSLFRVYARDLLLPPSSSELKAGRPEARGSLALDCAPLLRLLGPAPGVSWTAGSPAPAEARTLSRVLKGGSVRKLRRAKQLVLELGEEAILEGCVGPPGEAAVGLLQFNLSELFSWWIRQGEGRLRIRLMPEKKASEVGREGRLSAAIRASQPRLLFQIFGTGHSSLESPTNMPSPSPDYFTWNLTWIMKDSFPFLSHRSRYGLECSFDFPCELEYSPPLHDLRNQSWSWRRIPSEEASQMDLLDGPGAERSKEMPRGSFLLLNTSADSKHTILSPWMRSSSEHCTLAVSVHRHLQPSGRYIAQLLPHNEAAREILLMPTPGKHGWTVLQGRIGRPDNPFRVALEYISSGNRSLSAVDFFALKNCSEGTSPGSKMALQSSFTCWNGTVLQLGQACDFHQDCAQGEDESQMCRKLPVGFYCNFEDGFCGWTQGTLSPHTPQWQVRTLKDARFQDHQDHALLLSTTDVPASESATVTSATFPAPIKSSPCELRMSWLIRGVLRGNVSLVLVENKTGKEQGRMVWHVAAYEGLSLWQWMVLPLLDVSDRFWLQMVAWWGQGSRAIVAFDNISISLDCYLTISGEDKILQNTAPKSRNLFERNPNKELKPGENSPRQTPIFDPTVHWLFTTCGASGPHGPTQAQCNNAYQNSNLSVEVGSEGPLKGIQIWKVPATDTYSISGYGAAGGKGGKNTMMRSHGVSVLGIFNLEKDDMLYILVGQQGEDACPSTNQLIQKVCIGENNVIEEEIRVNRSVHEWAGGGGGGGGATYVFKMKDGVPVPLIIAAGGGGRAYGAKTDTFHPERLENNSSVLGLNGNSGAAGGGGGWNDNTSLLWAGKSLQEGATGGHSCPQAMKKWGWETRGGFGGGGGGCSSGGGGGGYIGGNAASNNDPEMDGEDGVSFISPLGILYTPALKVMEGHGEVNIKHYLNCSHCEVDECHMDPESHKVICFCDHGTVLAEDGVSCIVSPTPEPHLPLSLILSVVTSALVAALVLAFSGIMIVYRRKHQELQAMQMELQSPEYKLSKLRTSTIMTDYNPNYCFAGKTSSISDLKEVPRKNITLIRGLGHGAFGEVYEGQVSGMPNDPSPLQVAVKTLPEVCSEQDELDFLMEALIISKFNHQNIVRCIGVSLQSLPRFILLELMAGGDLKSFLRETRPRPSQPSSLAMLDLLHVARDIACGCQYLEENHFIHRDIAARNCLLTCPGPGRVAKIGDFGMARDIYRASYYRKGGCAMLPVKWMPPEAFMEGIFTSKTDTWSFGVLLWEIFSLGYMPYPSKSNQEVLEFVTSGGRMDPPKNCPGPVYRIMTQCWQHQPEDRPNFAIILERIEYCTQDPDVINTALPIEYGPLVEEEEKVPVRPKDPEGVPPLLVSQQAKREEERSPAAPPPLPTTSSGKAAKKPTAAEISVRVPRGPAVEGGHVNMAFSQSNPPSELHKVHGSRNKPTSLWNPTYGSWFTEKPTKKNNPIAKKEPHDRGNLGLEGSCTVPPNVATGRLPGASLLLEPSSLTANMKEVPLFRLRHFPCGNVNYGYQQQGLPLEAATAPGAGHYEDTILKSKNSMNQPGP
Sequence of IKBKB (human) (O14920 whole entry, looked up): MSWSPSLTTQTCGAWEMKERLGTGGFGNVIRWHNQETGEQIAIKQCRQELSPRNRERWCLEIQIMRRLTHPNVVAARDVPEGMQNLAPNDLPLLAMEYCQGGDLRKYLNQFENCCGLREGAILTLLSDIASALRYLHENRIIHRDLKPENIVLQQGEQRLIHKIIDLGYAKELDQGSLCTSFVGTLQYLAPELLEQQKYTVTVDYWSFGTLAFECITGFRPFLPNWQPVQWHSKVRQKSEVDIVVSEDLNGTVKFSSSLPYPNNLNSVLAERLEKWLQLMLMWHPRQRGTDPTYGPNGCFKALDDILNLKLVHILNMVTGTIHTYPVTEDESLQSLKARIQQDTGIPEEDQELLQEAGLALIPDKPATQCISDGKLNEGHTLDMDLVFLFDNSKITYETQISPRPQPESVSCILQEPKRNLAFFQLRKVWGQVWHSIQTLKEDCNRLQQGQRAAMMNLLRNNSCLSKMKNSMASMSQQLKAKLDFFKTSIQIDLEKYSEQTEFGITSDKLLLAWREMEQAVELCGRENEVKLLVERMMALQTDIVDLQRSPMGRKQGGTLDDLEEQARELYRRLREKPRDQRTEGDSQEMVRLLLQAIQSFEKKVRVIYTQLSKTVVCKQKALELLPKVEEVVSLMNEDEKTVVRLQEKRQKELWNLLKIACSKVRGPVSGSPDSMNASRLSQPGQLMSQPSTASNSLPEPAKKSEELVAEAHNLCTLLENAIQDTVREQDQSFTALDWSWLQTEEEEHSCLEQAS

N#Cc1ccc2ncnc(NCCc3ccc4ccccc4c3)c2c1
kinase still bound, per cent of control (MAPK15 (human)): 84%
kinase still bound, per cent of control (MAPK11 (human)): 100%
kinase still bound, per cent of control (MAP3K5 (human)): 95%
kinase still bound, per cent of control (ROCK2 (human)): 92%
kinase still bound, per cent of control (EPHA4 (human)): 100%
kinase still bound, per cent of control [1]: 96%
kinase still bound, per cent of control (CSNK2A2 (human)): 74%
kinase still bound, per cent of control (IKBKB (human)): 100%
kinase still bound, per cent of control (PIM1 (human)): 95%
kinase still bound, per cent of control [2]: 100%
kinase still bound, per cent of control (MTOR (human)): 80%
kinase still bound, per cent of control (STK36 (human)): 100%
kinase still bound, per cent of control (EPHA8 (human)): 87%
kinase still bound, per cent of control (PRKG2 (human)): 100%
kinase still bound, per cent of control [3]: 86%
kinase still bound, per cent of control (ALK (human)): 100%
kinase still bound, per cent of control (BMPR2 (human)): 100%
kinase still bound, per cent of control (RPS6KA2 KD2 (human)): 85%
kinase still bound, per cent of control (DAPK1 (human)): 89%
kinase still bound, per cent of control (ACVR1 (human)): 100%
kinase still bound, per cent of control (CHUK (human)): 74%
kinase still bound, per cent of control [4]: 98%
kinase still bound, per cent of control (CDK11B (human)): 99%
kinase still bound, per cent of control [5]: 94%
kinase still bound, per cent of control (KDR (human)): 86%
kinase still bound, per cent of control (CSNK1E (human)): 100%
kinase still bound, per cent of control (MAPK6 (human)): 91%
kinase still bound, per cent of control (PDGFRA (human)): 92%
kinase still bound, per cent of control (MYLK2 (human)): 99%
kinase still bound, per cent of control (MYO3A (human)): 100%
kinase still bound, per cent of control (PAK6 (human)): 80%
kinase still bound, per cent of control (ABL2 (human)): 99%
kinase still bound, per cent of control (MAP3K15 (human)): 91%
kinase still bound, per cent of control (GSK3A (human)): 100%
kinase still bound, per cent of control (RPS6KA3 KD1 (human)): 97%
kinase still bound, per cent of control (IGF1R (human)): 100%
kinase still bound, per cent of control [6]: 86%
kinase still bound, per cent of control (PRKCE (human)): 100%
kinase still bound, per cent of control (SIK1 (human)): 100%
kinase still bound, per cent of control (PDGFRB (human)): 100%
kinase still bound, per cent of control (AURKC (human)): 84%
kinase still bound, per cent of control [7]: 89%
kinase still bound, per cent of control (DDR2 (human)): 100%
